This data set can be described thus: refractive index (Na D-line) (dimensionless). The following applies: 101.33 kPa, Liquid, Standard Abbe refractometry.

Molecules are shown by their SMILES. ± gives the expanded uncertainty stated by the source.

For `CC(=O)OC(C)C` [1-methylethyl ethanoate], for the setting “293.15 K”, the refractive index worked out at 1.3779 ± 0.002.

As to `O=Cc1ccco1` [2-furaldehyde], the refractive index (293.15 K) came to 1.5264 ± 0.002. Same read-out and setting: as for `COc1ccccc1O` [2-methoxyphenol], the figure is 1.5441 ± 0.002; as for `CC(=O)CO` [acetol], 1.4262 ± 0.0023. For the molecule `CO` [methanol], the refractive index (293.15 K) was determined as 1.3293 ± 0.002. With `Oc1ccccc1` [phenol], the refractive index (314.15 K) stood at 1.5405 ± 0.002.

Turning to `CCC=O` [propanal], the refractive index (293.15 K) is given as 1.3644 ± 0.002.

Consider `Cc1ccccc1` [toluene], for which the refractive index (293.15 K) was 1.4969 ± 0.002.

The values above are taken from the NIST ThermoML archive (doi:10.1016/j.fluid.2018.04.016).
